Data reported in ChEMBL document CHEMBL1148543, “Discovery of A-770041, a src-family selective orally active lck inhibitor that prevents organ allograft rejection” (Bioorg Med Chem Lett, 2006).

Tests used:
[1] = molecular target: Proto-oncogene tyrosine-protein kinase Src (Homo sapiens, UniProt P12931); assay: Inhibitory activity against src
[2] = molecular target: T1, Tyrosine-protein kinase Lck (Homo sapiens, UniProt P06239); assay: Inhibitory activity against lck
[3] = molecular target: Proto-oncogene tyrosine-protein kinase LCK (Mus musculus) (UniProt P06240)
[4] = molecular target: Tyrosine-protein kinase Fyn (Homo sapiens, UniProt P06241); assay: Inhibitory activity against fyn
[5] = molecular target: T1, Tyrosine-protein kinase Lck; assay: Inhibitory activity against anti-CD3 mAb-induced IL2 production in human whole blood; format: functional, tissue-based
[6] = Half life in mouse; format: ADME, organism-based; settings: in vivo
[7] = Oral bioavailability in mouse; format: ADME, organism-based; settings: in vivo
[8] = Cmax in rat; format: ADME, organism-based; settings: in vivo
Rattus norvegicus [9] = assay: Plasma concentration in rat at 10 mg/kg/day; format: ADME, organism-based; settings: in vivo
[10] = Plasma clearance in rat; format: ADME, organism-based
[11] = molecular target: Tyrosine-protein kinase Fgr (Homo sapiens, UniProt P09769); assay: Inhibitory activity against fgr
[12] = molecular target: Tyrosine-protein kinase Lyn (Homo sapiens, UniProt P07948); assay: Inhibitory activity against lyn
[13] = Tmax in rat; format: ADME, organism-based; settings: in vivo
[14] = molecular target: T2, Tyrosine-protein kinase ZAP-70 (Homo sapiens, UniProt P43403); assay: Inhibitory activity against ZAP70
T2 sequence (P43403 whole entry): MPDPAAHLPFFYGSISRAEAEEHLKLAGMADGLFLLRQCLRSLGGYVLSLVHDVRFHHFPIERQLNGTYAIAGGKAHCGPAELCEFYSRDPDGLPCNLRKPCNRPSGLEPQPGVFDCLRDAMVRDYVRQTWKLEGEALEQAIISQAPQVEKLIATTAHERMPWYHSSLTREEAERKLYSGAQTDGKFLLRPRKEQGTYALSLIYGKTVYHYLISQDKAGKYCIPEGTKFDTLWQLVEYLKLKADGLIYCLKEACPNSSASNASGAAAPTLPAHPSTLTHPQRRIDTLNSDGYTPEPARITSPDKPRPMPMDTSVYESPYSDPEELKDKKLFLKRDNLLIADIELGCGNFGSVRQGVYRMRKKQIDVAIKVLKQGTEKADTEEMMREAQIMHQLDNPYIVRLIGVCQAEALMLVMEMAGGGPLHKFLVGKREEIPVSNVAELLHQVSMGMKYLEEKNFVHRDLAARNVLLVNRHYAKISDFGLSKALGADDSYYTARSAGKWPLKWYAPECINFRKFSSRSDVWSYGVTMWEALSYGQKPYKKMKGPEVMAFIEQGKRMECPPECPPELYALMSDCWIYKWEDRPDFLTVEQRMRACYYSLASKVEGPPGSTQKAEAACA

[15] = molecular target: Mitogen-activated protein kinase kinase kinase 8 (Homo sapiens, UniProt P41279); assay: Inhibitory activity against COT
[16] = Half life in rat; format: ADME, organism-based; settings: in vivo
[17] = Tmax in mouse; format: ADME, organism-based; settings: in vivo
[18] = molecular target: Proto-oncogene tyrosine-protein kinase LCK (Mus musculus, UniProt P06240); assay: Inhibition of TCR stimulated IL2 production in mice administered orally; format: functional
Angiopoietin-1 receptor = Angiopoietin-1 receptor (Homo sapiens, UniProt Q02763); assay: Inhibitory activity against tie2
[19] = Volume of distribution in rat; format: ADME, organism-based; settings: in vivo, read-out: Vdss
[20] = Oral bioavailability in rat; format: ADME, organism-based; settings: in vivo
Rattus norvegicus [21] = species: Rattus norvegicus; assay: Plasma concentration in rat at […]; format: ADME, organism-based; settings: in vivo
[22] = Volume of distribution in mouse; format: ADME, organism-based; settings: in vivo, read-out: Vdss
[23] = Plasma clearance in mouse; format: ADME, organism-based
[24] = molecular target: Tyrosine-protein kinase SYK (Homo sapiens, UniProt P43405); assay: Inhibitory activity against Syk
Rattus norvegicus [25] = assay: Plasma concentration in rat at 5 mg/kg/day; format: ADME, organism-based; settings: in vivo
[26] = Cmax in mouse; format: ADME, organism-based; settings: in vivo

T1 sequence (P06239 whole entry): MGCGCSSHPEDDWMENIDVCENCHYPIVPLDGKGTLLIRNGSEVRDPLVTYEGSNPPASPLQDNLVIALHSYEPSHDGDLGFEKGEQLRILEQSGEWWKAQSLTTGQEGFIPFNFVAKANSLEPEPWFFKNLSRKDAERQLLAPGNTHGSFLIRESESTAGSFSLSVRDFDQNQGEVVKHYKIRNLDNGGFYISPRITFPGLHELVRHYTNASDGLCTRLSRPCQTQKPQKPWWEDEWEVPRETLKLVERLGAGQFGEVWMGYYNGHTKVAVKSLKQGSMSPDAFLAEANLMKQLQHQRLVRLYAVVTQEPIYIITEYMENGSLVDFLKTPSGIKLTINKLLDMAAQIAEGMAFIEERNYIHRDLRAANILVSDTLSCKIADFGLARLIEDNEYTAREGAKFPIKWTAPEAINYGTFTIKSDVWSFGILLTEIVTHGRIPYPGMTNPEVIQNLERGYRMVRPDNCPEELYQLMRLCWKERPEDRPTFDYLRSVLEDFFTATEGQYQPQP
Sequence of Tyrosine-protein kinase Fyn (P06241 whole entry): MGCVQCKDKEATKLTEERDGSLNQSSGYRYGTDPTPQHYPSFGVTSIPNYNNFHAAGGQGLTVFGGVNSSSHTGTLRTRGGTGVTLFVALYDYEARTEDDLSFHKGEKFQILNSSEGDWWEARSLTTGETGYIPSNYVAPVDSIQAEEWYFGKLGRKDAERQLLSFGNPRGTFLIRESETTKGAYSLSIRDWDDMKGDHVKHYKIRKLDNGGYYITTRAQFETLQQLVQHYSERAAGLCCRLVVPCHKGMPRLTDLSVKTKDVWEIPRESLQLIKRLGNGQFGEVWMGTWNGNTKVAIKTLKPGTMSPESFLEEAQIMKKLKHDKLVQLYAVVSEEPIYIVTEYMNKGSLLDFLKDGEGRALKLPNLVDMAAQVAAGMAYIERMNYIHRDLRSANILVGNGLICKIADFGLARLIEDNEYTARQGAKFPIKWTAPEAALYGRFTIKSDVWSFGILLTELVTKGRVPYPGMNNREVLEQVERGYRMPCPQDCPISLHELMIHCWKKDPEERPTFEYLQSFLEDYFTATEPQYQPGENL
Sequence of Proto-oncogene tyrosine-protein kinase LCK (Mus musculus) (P06240 2-509 limits assumed): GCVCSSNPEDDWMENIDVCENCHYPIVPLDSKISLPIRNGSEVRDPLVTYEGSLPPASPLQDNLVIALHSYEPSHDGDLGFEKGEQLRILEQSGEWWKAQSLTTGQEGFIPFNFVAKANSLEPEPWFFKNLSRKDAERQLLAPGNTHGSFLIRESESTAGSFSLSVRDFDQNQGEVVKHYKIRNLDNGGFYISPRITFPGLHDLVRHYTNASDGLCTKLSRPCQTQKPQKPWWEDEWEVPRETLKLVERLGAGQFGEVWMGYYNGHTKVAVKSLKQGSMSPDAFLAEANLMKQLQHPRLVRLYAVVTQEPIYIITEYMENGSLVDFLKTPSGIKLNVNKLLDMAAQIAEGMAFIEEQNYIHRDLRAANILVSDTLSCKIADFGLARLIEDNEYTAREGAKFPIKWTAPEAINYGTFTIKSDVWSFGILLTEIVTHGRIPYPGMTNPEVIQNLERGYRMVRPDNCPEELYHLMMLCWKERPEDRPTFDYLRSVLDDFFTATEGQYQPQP
Sequence of Mitogen-activated protein kinase kinase kinase 8 (P41279 whole entry): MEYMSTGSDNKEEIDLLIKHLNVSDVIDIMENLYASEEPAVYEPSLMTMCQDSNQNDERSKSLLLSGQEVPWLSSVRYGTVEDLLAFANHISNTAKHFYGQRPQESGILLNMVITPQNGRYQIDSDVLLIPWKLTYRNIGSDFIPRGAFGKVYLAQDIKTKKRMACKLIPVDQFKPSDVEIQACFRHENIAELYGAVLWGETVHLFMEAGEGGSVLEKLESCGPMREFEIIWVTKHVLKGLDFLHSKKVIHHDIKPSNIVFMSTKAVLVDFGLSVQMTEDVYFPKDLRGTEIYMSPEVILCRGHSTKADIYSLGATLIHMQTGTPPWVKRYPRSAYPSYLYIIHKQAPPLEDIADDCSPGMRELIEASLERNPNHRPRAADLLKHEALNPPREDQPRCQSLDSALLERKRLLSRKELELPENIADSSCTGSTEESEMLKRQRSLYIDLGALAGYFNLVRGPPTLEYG
Sequence of Angiopoietin-1 receptor (Q02763 whole entry): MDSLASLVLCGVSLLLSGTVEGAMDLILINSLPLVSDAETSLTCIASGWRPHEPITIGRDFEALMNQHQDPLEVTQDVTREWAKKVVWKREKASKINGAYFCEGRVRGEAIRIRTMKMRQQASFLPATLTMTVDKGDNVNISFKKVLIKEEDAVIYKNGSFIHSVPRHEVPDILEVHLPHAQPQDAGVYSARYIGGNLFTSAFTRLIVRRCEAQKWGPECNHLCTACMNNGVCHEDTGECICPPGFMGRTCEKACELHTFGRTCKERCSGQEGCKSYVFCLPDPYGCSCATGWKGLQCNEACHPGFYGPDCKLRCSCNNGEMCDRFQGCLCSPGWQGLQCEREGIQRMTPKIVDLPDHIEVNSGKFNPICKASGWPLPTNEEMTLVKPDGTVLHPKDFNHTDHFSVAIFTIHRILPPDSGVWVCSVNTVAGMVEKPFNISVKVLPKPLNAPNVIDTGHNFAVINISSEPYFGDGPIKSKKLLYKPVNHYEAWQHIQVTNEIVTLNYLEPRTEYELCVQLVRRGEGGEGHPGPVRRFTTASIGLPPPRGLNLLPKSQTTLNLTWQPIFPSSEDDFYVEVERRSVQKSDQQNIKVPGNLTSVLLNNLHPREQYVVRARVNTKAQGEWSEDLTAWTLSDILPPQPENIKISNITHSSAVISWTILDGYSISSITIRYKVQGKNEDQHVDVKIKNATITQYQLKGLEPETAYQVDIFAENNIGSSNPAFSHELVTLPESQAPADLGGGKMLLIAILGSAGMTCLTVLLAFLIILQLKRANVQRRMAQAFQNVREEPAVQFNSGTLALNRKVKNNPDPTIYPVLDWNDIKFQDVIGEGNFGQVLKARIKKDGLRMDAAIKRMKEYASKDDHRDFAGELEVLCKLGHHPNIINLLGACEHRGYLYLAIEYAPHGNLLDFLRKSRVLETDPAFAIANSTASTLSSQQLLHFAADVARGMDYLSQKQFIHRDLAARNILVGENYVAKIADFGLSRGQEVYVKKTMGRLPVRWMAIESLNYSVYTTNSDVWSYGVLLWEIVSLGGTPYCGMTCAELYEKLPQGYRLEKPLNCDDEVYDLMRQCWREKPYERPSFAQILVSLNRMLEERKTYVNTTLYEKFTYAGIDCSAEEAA
Sequence of Tyrosine-protein kinase Lyn (P07948 whole entry): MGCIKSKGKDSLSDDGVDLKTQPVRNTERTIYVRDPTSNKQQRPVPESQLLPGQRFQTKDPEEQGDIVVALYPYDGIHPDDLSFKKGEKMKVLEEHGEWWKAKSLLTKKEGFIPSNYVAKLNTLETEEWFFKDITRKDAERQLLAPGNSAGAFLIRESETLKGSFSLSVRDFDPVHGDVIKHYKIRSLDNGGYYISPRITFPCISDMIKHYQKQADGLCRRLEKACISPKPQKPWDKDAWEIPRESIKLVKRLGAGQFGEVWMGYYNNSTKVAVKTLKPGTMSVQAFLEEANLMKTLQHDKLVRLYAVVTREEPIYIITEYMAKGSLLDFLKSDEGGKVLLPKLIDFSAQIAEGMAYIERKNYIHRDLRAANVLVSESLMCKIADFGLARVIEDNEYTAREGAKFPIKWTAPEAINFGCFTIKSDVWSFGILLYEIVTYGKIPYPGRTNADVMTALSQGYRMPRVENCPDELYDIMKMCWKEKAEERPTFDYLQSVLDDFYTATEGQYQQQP
Sequence of Proto-oncogene tyrosine-protein kinase Src (P12931 2-536 limits assumed): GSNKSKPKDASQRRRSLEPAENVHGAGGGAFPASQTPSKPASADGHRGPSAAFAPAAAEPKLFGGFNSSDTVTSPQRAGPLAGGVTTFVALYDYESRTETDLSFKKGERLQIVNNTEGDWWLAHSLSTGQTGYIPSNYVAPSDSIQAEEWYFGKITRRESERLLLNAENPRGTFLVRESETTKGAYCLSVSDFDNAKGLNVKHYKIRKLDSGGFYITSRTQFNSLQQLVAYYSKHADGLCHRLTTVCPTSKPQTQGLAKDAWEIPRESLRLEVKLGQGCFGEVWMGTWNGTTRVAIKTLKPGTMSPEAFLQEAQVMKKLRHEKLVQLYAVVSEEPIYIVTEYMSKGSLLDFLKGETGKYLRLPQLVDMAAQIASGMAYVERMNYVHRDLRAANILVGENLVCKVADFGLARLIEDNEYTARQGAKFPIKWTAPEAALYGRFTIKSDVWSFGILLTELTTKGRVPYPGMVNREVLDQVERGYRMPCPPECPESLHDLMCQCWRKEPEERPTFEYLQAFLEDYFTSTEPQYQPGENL
Sequence of Tyrosine-protein kinase Fgr (P09769 whole entry): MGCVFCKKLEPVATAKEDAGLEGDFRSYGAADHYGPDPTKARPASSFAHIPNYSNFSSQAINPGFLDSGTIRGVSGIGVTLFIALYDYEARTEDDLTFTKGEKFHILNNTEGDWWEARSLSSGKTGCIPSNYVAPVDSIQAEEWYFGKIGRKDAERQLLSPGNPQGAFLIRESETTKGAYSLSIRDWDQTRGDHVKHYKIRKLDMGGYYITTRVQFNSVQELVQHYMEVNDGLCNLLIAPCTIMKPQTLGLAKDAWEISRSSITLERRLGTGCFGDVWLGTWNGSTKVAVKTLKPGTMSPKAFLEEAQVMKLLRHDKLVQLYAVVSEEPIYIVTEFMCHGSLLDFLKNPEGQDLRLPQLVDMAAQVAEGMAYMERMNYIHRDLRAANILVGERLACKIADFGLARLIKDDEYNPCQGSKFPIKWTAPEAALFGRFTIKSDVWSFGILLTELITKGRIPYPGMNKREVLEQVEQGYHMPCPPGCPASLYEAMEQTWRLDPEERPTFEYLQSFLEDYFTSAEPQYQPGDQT

COc1cc(-c2nn(C3CCN(C4CCN(C(C)=O)CC4)CC3)c3ncnc(N)c23)ccc1NC(=O)c1cc2ccccc2n1C
IC50 [1]: 17.2 µM | IC50 [2]: 0.074 µM | ED90 [3]: 19 mg/kg | IC50 [4]: ≥ 50 µM

COc1cc(-c2nn(C3CCNCC3)c3ncnc(N)c23)ccc1NC(=O)c1ccc(C(F)(F)F)cc1F
IC50 [5]: 0.05 µM | IC50 [2]: 0.08 µM | IC50 [4]: > 50 µM

COc1cc(-c2nn(C3CCN(C4CCOCC4)CC3)c3ncnc(N)c23)ccc1NC(=O)c1cc2cc(C(N)=O)ccc2n1C
IC50 [2]: > 50 µM | IC50 [4]: > 50 µM

COc1cc(-c2nn(C3CCN(C)CC3)c3ncnc(N)c23)ccc1NC(=O)c1ccc(C(F)(F)F)cc1F
IC50 [5]: 0.03 µM | IC50 [2]: 0.106 µM | IC50 [4]: > 50 µM

COc1cc(-c2nn(C3CCN(Cc4ccccc4)CC3)c3ncnc(N)c23)ccc1NC(=O)c1ccc(C(F)(F)F)cc1F
IC50 [5]: 0.54 µM | IC50 [2]: 0.341 µM | IC50 [4]: > 50 µM

COc1cc(-c2nn(C3CCN(C4CCOCC4)CC3)c3ncnc(N)c23)ccc1NC(=O)c1cc2cc(C#N)ccc2n1C
IC50 [2]: 3.48 µM | IC50 [4]: 32.5 µM

COc1cc(-c2nn(C3CCN(C4CCOCC4)CC3)c3ncnc(N)c23)ccc1NC(=O)c1ccc(OC(F)(F)F)cc1
IC50 [2]: 2.35 µM | IC50 [4]: > 50 µM

COc1cc(-c2nn(C3CCN(C4CCN(C(C)=O)CC4)CC3)c3ncnc(N)c23)ccc1NC(=O)c1ccc(C(F)(F)F)cc1F
IC50 [5]: 0.03 µM | IC50 [2]: 0.093 µM | IC50 [4]: > 50 µM

COc1cc(-c2nn(C3CCN(C4CCOCC4)CC3)c3ncnc(N)c23)ccc1NC(=O)c1ccc(N(C)C)cc1
IC50 [5]: 0.035 µM | IC50 [2]: 0.106 µM | IC50 [4]: > 50 µM

COc1cc(-c2nn(C3CCN(C4CCOCC4)CC3)c3ncnc(N)c23)ccc1NC(=O)c1ccc(C(F)(F)F)cc1F
IC50 [5]: 0.04 µM | IC50 [2]: 0.102 µM | IC50 [4]: > 50 µM

COc1cc(-c2nn(C3CCN(C4CCOCC4)CC3)c3ncnc(N)c23)ccc1NC(=O)c1cc(O)c2ccccc2n1
IC50 [2]: 9.18 µM | IC50 [4]: > 50 µM

COc1cc(-c2nn(C3CCN(C4CCOCC4)CC3)c3ncnc(N)c23)ccc1NC(=O)c1ccc(C)cc1
IC50 [2]: 8.96 µM | IC50 [4]: > 50 µM

COc1cc(-c2nn(C3CCN(C4CCOCC4)CC3)c3ncnc(N)c23)ccc1NC(=O)c1cc2ccccc2n1C
IC50 [5]: 0.02 µM | IC50 [2]: 0.107 µM | half-life [6]: 3.1 h | ED90 [3]: 15.5 mg/kg | bioavailability [7]: 93% | IC50 [4]: > 50 µM

COc1cc(-c2nn([C@H]3CC[C@H](N4CCN(C(C)=O)CC4)CC3)c3ncnc(N)c23)ccc1NC(=O)c1cc2ccccc2n1C
Cmax [8]: 2.08 µg/mL | concentration (Rattus norvegicus [9]): 2.9 µM | clearance [10]: 0.2 L/h/kg | IC50 [5]: 0.08 µM | IC50 [11]: 14.1 µM | IC50 [2]: 0.147 µM | IC50 [12]: 1.18 µM | Tmax [13]: 4.7 h | IC50 [14]: > 25 µM | IC50 [15]: > 25 µM | half-life [16]: 4.1 h | Tmax [17]: 1 h | EC50 [18]: 0.078 µM | IC50 (Angiopoietin-1 receptor): > 50 µM | half-life [6]: 4.7 h | Vd [19]: 1.2 L/kg | bioavailability [20]: 52% | bioavailability [7]: 27% | concentration (Rattus norvegicus [21]): 0.35 µM | Vd [22]: 10.3 L/kg | clearance [23]: 1.5 L/h/kg | IC50 [24]: > 25 µM | concentration (Rattus norvegicus [25]): 1.06 µM | Cmax [26]: 0.387 µg/mL

COc1cc(-c2nn(C3CCN(C4CCOCC4)CC3)c3ncnc(N)c23)ccc1NC(=O)c1cccc(O)c1
IC50 [2]: 23.2 µM | IC50 [4]: > 50 µM

COc1cc(-c2nn(C3CCN(C4CCOCC4)CC3)c3ncnc(N)c23)ccc1NC(=O)c1cc2cc(Cl)ccc2n1C
IC50 [5]: 0.013 µM | IC50 [2]: 0.054 µM | IC50 [4]: 13.6 µM

COc1cc(-c2nn(C3CCN(C4CCN(C)CC4)CC3)c3ncnc(N)c23)ccc1NC(=O)c1ccc(C(F)(F)F)cc1F
IC50 [5]: 0.02 µM | IC50 [2]: 0.023 µM | IC50 [4]: 1.07 µM

COc1cc(-c2nn(C3CCN(C4CCOCC4)CC3)c3ncnc(N)c23)ccc1NC(=O)c1nc2ccccc2n1C
IC50 [5]: 0.054 µM | IC50 [2]: 0.318 µM | IC50 [4]: > 50 µM
